Reference: patent EP4379060A1, “HIGH-EFFICIENCY PRODUCTION OF HYDROXYECTOINE” (Universität des Saarlandes, priority 2022, dated 2024)

Assays:
C. glutamicum [1] = assay: Quantification of intracellular ectoines and free amino acids in cells grown with ectoine; assay type: cell-based, Corynebacterium glutamicum ATCC 13032; settings: 37°C, 10 h
Method: Cultivation of C. glutamicum in shake flask. Cultures of C. glutamicum were incubated in baffled shake flasks (10% filling volume) in an orbital shaker at 230 rpm (Multitron, Infors AG, Bottmingen, Switzerland). For pre-culturing, cells were first grown overnight in complex BHI medium using a single colony from a 2-day pre-incubated BHI agar plate as inoculum. Subsequently, cells were harvested (8500 xg, 5 min, RT), washed once with minimal medium, and used to inoculate a second pre-culture in minimal glucose medium. The second pre-culture was then harvested during the exponential phase (8500 xg, 5 min, RT), washed once, and used to inoculate the main culture, again in minimal medium. The temperature was set to 30°C for precultures and 37°C for main cultures. All experiments were conducted as triplicate.
Quantification of intracellular metabolites. To quantify intracellular amino acids and ectoines, 2 mL of mid-exponentially growing cells were sampled by fast filtration (cellulose nitrate filter, 0.2 µm, 47 mm, Sartorius, Göttingen, Germany) (Bolten CJ, Kiefer P, Letisse F, Portais J-C, Wittmann C: Sampling for Metabolome Analysis of Microorganisms. Analytical chemistry 2007, 79:3843-3849.), including twice washing of the cells on the filter with two volumes of 2.5% NaCl. The filters were then transferred into cups prefilled with a 220 µM α-amino butyric acid solution as internal standard for later quantification. […] The obtained supernatants were collected for analysis, and intracellular amino acids were quantified by HPLC (Hans MA, Heinzle E, Wittmann C: Quantification of intracellular amino acids in batch cultures of Saccharomyces cerevisiae. Appl Microbiol Biotechnol 2001, 56:776-779.).
Quantification of ectoine and hydroxyectoine. Concentrations of ectoine and hydroxyectoine were analyzed by HPLC (Agilent Series 1290 Infinity, Agilent, Santa Clara, CA, USA). […] External standards were applied for quantification.
Quantification of amino acids. Amino acid levels of cell lysates were quantified using HPLC (Agilent Series 1290 Infinity, Agilent, Santa Clara, CA, USA) with α-amino butyric acid as internal standard. For this, the analytes were derivatized with ortho-phthalaldehyde and 9-fluorenylmethyl chloroformate and were separated and quantified as described previously (Krömer J, Fritz M, Heinzle E, Wittmann C: In vivo quantification of intracellular amino acids and intermediates of the methionine pathway in Corynebacterium glutamicum. Analytical biochemistry 2005, 340:171-173.).
For this purpose, the inventors extracted and quantified intracellular ectoine, hydroxyectoine, and free proteinogenic amino acids from the three strains during mid exponential growth, i. e. after 10 h (Fig. 3). […]

C. glutamicum [2] = assay: Microbioreactor cultivation at different initial ectoine levels (growth, on-line OD620); assay type: cell-based, Corynebacterium glutamicum ATCC 13032; settings: 30°C
Method: Cultivation of C. glutamicum in microbioreactors. Screening of C. glutamicum strains was carried out in 48-well flower plates with transparent bottom for online biomass sensing using a microbioreactor (BioLector, Beckman Coulter GmbH, Baesweiler, Germany, Baesweiler, Germany) at 1,300 rpm, 85% humidity and different temperatures, as given below. Two subsequent pre-cultures were conducted in shake flasks as described above. For main cultures, each well of the microtiter plate was filled with 1 mL of minimal glucose medium and inoculated to an initial OD660 of 0.5. Over the course of the cultivation, biomass was measured online as light backscatter at 620 nm. All experiments were conducted as triplicate.
In a first experiment the inventors examined if C. glutamicum, expressing ectD from P. stutzeri, can convert externally supplied ectoine into hydroxyectoine and, beneficially, excrete the latter (Fig. 1c). […]

[3] = hydroxyectoine producers, glucose + 5 mM ectoine

`CC1=NC(C(=O)O)CCN1` (stereo not drawn) [ectoine, 1,4,5,6-tetrahydro-2-methyl-4-pyrimidinecarboxylic acid] was tested, and the “reduction of intracellular I-glutamic acid” value (C. glutamicum [1]; MSM strain, glucose + 5 mM ectoine, versus control without ectoine) was “up to 47%”, the “intracellular pools of I-glutamic acid, I-glutamine, and I-proline” value (C. glutamicum [1]; ectoine added to non-producing control strain with empty pCES vector, 5 mM) was “strongly reduced” and the “drop of intracellular level of I-glutamine” value (C. glutamicum [1]; [3]) was “up to 61%”. The “drop of intracellular level of I-proline” value (C. glutamicum [1]; [3]) was “up to 50%”, the cell fitness (C. glutamicum [2]; increasing ectoine concentration, strains expressing MSM, VSA, HEL, SCO EctD variants) was “unchanged” and the “cell fitness (specific growth rate)” value (C. glutamicum [2]; initial ectoine 5, 10, 15 mM, strains pClik and pCES PtufectD^PST) was “not affected”.
